# Experimental data: patent US8912144B2, “Method for treating stroke via administration of NEP1-40 and inosine” (Children's Medical Center Corporation, priority 2003, dated 2014)
# Tested on: corticospinal neurons (CSNs/CSMNs)
# Experiment: Laser-capture microdissection and Illumina microarray gene expression in corticospinal neurons contralateral to stroke
# Assay type: in vivo, rat
# Protocol: In a separate group of animals (n=20), layer V pyramidal cells of the sensorimotor cortex were retrogradely labeled by injecting Alexa-Fluor-488-conjugated cholera toxin B subunit (CTB; 300 U/μl in sterile saline) into the cervical spinal cord. For this, animals were anesthetized with a combination of ketamine and Domitor (medetomidine) and a laminectomy was performed at the cervical level of the spinal cord (C2-C4). CTB was stereotaxically delivered into four sites lateral to the corticospinal tract. Injections (1.3 μl) were spaced 1 mm apart on the rostro-caudal axis, and were made 0.5 mm to the left and right of the midline. After allowing two weeks for transport of the tracer, we performed either sham surgery with no treatment (n=6) or stroke surgery combined with saline (n=3) or inosine (n=4) treatment as described above. Seven days later, animals were decapitated under transient gas anesthesia, brains were removed and rinsed in cold RPMI medium, and a tissue block containing the sensorimotor cortex was dissected and placed in OCT Tissue Tek Medium (Sakura Finetek USA Inc., CA) on dry ice within five minutes of death. Ten μm sections were cut onto precleaned Gold Seal RITE-ON glass slides (Gold Seal Prod-ucts, Portsmouth, N.H.), placed on dry ice, and rapidly stored at −80° C.
# Slide-mounted sections were thawed and dehydrated in RNAse-free ethanol gradients and xylene. Retro-gradely labeled, fluorescent cortical pyramidal cells in the undamaged hemisphere were individually captured using the Arcturus VERITAS system. ≧500 cells were collected from each animal and stored in Arcturus extraction buffer at −80° C. Total RNA was extracted from cells using the Micro-to-Midi TotalRNA Purification System (Invitrogen, Carlsbad Calif.) and double-amplified using the TargetAmp 2-Round Aminoallyl-aRNA Amplification kit 1.0 (Epicentre, Madison, Wis.). Amplified RNA was checked for average fragment length using the Agilent RNA 6000 Nano LabChip kit (Agilent Technologies, Santa Clara, Calif.) and then biotinylated and hybridized (1 μg) on Illumina RatRef-12 Expression BeadChip arrays (Illumina, San Diego Calif.), querying the expression of >22,000 RefSeq-curated rat transcripts. Results were obtained from a total of 15 samples representing 6 untreated controls, 4 animals with stroke treated with saline and 5 animals with stroke treated with inosine. Slides were processed and scanned with Illumina BeadStation platform according to the manufacturer protocol.
# Raw data was analyzed using Bioconductor packages (www.bioconductor.org, (Gentleman et al., 2004)). Low level quality-control analysis was performed using inter-array Pearson correlation and clustering based on variance. Two arrays (1 saline and 1 inosine-treated) were outliers and were excluded from the analysis. Data was normalized using quantile normalization, and analysis of differential expression was performed using a linear model fitting (LIMMA package, (Smyth, 2005). Differentially expressed genes were classified according to gene ontology using Bioconductor packages and online tools (DAVID, http://david.abcc.ncifcrf.gov/). Pathway analysis was carried out using Ingenuity Pathway Analysis (Ingenuity Systems, www.ingenuity.com).
smiles,measurement,setting,value
OC[C@H]1O[C@@H](n2cnc3c(O)ncnc32)[C@H](O)[C@@H]1O [inosine],"Signal Intensity, LOC500629","ILMN_61521, inosine after stroke",946
same,"Fold-Induction Stroke, ino vs. cntrl, LOC500137",ILMN_61607,0.58
same,"Signal Intensity, LOC500137","ILMN_61607, inosine after stroke",454
same,"Fold-Induction Stroke, ino vs. cntrl, Slc6a15",ILMN_61840,0.43
same,"Signal Intensity, Slc6a15","ILMN_61840, inosine after stroke",1093
same,"Fold-Induction Stroke, ino vs. cntrl, Bpnt1",ILMN_62095,0.70
same,"Signal Intensity, Bpnt1","ILMN_62095, inosine after stroke",283
same,Fold-induction CSMNs: Ftl1,"ILMN_62100, over and above inosine's effect of decreasing stroke-induced changes",1.74 fold
same,"Fold-Induction Stroke, ino vs. cntrl, Ddx1",ILMN_62325,0.57
same,"Signal Intensity, Ddx1","ILMN_62325, inosine after stroke",3553
same,Fold-induction CSMNs: Timp1,"ILMN_62559, over and above inosine's effect of decreasing stroke-induced changes",3.74 fold
same,"Fold-Induction Stroke, ino vs. cntrl, Rab18",ILMN_62620,0.76
same,"Signal Intensity, Rab18","ILMN_62620, inosine after stroke",2230
same,Fold-induction CSMNs: Eif4ebp1,"ILMN_62651, over and above inosine's effect of decreasing stroke-induced changes",1.86 fold
same,"Fold-Induction Stroke, ino vs. cntrl, Grinl1a",ILMN_62918,0.66
same,"Signal Intensity, Grinl1a","ILMN_62918, inosine after stroke",667
same,"Fold-Induction Stroke, ino vs. cntrl, Ppp1cb",ILMN_62999,0.42
same,"Signal Intensity, Ppp1cb","ILMN_62999, inosine after stroke",940
same,"Fold-Induction Stroke, ino vs. cntrl, LOC302559",ILMN_63077,0.89
same,"Signal Intensity, LOC302559","ILMN_63077, inosine after stroke",1031
same,"Fold-Induction Stroke, ino vs. cntrl, LOC366673",ILMN_63297,0.60
same,"Signal Intensity, LOC366673","ILMN_63297, inosine after stroke",298
same,"Fold-Induction Stroke, ino vs. cntrl, Rcn2",ILMN_63299,0.60
same,"Signal Intensity, Rcn2","ILMN_63299, inosine after stroke",442
same,"Fold-Induction Stroke, ino vs. cntrl, Gtl6",ILMN_63474,0.51
same,"Signal Intensity, Gtl6","ILMN_63474, inosine after stroke",302
same,"Fold-Induction, complement cascade gene C2","ILMN_63608, LCM-captured CSMNs contralateral a stroke",2.93 fold
same,"Fold-Induction Stroke, ino vs. cntrl, Cdc91l1",ILMN_63884,0.82
same,"Signal Intensity, Cdc91l1","ILMN_63884, inosine after stroke",529
same,"Fold-Induction Stroke, ino vs. cntrl, LOC306428",ILMN_63947,0.42
same,"Signal Intensity, LOC306428","ILMN_63947, inosine after stroke",507
same,"Fold-Induction Stroke, ino vs. cntrl, LOC500436",ILMN_64006,0.48
same,"Signal Intensity, LOC500436","ILMN_64006, inosine after stroke",1871
same,"Fold-Induction Stroke, ino vs. cntrl, LOC366411",ILMN_64007,0.51
same,"Signal Intensity, LOC366411","ILMN_64007, inosine after stroke",295
same,"Fold-Induction Stroke, ino vs. cntrl, Bcl10",ILMN_64237,0.84
same,"Signal Intensity, Bcl10","ILMN_64237, inosine after stroke",723
same,"Fold-Induction Stroke, ino vs. cntrl, Magi3",ILMN_64781,0.79
same,"Signal Intensity, Magi3","ILMN_64781, inosine after stroke",472
same,"Fold-Induction Stroke, ino vs. cntrl, Rtn4",ILMN_64945,0.57
same,"Signal Intensity, Rtn4","ILMN_64945, inosine after stroke",6518
same,"Fold-Induction Stroke, ino vs. cntrl, LOC500501",ILMN_65062,0.79
same,"Signal Intensity, LOC500501","ILMN_65062, inosine after stroke",958
same,"Fold-Induction Stroke, ino vs. cntrl, LOC287212",ILMN_65170,0.60
same,"Signal Intensity, LOC287212","ILMN_65170, inosine after stroke",1634
same,"Fold-Induction Stroke, ino vs. cntrl, LOC499328",ILMN_65309,0.53
same,"Signal Intensity, LOC499328","ILMN_65309, inosine after stroke",899
same,"Fold-Induction Stroke, ino vs. cntrl, Psmb5",ILMN_65450,0.65
same,"Signal Intensity, Psmb5","ILMN_65450, inosine after stroke",2709
same,"Fold-Induction Stroke, ino vs. cntrl, Hnrpf",ILMN_65510,0.86
same,"Signal Intensity, Hnrpf","ILMN_65510, inosine after stroke",1922
same,"Fold-Induction Stroke, ino vs. cntrl, Psma7",ILMN_65587,0.62
same,"Signal Intensity, Psma7","ILMN_65587, inosine after stroke",2058
same,"Fold-Induction Stroke, ino vs. cntrl, LOC497663",ILMN_65610,0.90
same,"Signal Intensity, LOC497663","ILMN_65610, inosine after stroke",416
same,"Fold-Induction Stroke, ino vs. cntrl, Pafah1b2",ILMN_65657,0.56
same,"Signal Intensity, Pafah1b2","ILMN_65657, inosine after stroke",411
same,"Fold-Induction Stroke, ino vs. cntrl, LOC294046",ILMN_65667,0.55
same,"Signal Intensity, LOC294046","ILMN_65667, inosine after stroke",2096
same,"Fold-Induction Stroke, ino vs. cntrl, Rchy1",ILMN_65668,0.77
same,"Signal Intensity, Rchy1","ILMN_65668, inosine after stroke",416
same,"Fold-Induction Stroke, ino vs. cntrl, LOC501181",ILMN_65702,0.49
same,"Signal Intensity, LOC501181","ILMN_65702, inosine after stroke",268
same,"Fold-Induction Stroke, ino vs. cntrl, Mal",ILMN_65814,0.40
same,"Signal Intensity, Mal","ILMN_65814, inosine after stroke",465
same,"Fold-Induction Stroke, ino vs. cntrl, MGC93921",ILMN_65993,0.69
same,"Signal Intensity, MGC93921","ILMN_65993, inosine after stroke",845
same,"Fold-Induction Stroke, ino vs. cntrl, LOC299179",ILMN_66036,0.76
same,"Signal Intensity, LOC299179","ILMN_66036, inosine after stroke",385
same,"Fold-Induction Stroke, ino vs. cntrl, LOC317232",ILMN_66272,0.70
same,"Signal Intensity, LOC317232","ILMN_66272, inosine after stroke",5211
same,"Fold-Induction Stroke, ino vs. cntrl, Spnb4",ILMN_66300,0.72
